Results on 25 compounds are retold here after patent publication US20040127492A1 (Pharmacia Corporation, priority 2002, published 2004).

Like-named read-outs stand apart in the source and are kept apart here.

Broadly, the IC50 is the concentration at which inhibition is half-maximal.

The target of one test is MK-3 (Homo sapiens, UniProt Q16644). Kind of test: MK-3 inhibition IC50 (similar method to MK-2, with appropriate modifications). Type of test: biochemical. The note with it: read-out: MK-3 Avg. IC50.
For a further test, the target named is MAPKAPK2 (MK-2) (Homo sapiens, UniProt P49137). Kind of test: Determination of MK-2 IC50 (HSP-peptide phosphorylation, anion exchange resin capture assay). Type of test: biochemical. In a few lines:
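MAPKAPK2, preactivated by p38α with 0.25 mM ATP for 1 h at 30° C, used at 15 nM to phosphorylate HSP-peptide with 0.03 mM ATP plus [γ33P]ATP, pH 7.5, 2% DMSO, 30 min at 30° C. Labelled peptide counted after anion-exchange resin capture; IC50 from six ten-fold dilutions, triplicate.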

The mark [1] stands for this setting: Table 2, pyrazolylpyrazole MK-2 inhibitors.
[2] abbreviates: Table 2, pyrazolylpyrazole MK-2 inhibitors, read-out: MK-2 Avg. IC50.
Where [3] appears, read: Table 1, phenoxypyrazole MK-2 inhibitors.
[4] abbreviates: Table 1, phenoxypyrazole MK-2 inhibitors, read-out: MK-2 Avg, IC50.
Setting [5] is: Table 5, other cyclic pyrazole MK-2 inhibiting compounds.
The mark [6] stands for this setting: Table 5, other cyclic pyrazole MK-2 inhibiting compounds, read-out: MK-2 Avg. IC50.

MAPKAPK2 (MK-2), sequence (P49137 whole entry, species assumed): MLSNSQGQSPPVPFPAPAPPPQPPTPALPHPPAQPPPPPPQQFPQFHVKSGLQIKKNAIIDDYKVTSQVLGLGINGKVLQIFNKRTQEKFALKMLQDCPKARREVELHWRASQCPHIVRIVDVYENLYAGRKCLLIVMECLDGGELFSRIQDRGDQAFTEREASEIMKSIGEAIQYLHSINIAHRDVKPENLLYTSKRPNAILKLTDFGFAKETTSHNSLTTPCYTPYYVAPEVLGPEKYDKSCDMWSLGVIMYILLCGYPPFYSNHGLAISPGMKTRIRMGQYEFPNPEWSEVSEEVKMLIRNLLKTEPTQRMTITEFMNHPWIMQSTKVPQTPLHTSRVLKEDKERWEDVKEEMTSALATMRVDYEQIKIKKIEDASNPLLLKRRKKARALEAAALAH
MK-3, sequence (Q16644 whole entry, species assumed): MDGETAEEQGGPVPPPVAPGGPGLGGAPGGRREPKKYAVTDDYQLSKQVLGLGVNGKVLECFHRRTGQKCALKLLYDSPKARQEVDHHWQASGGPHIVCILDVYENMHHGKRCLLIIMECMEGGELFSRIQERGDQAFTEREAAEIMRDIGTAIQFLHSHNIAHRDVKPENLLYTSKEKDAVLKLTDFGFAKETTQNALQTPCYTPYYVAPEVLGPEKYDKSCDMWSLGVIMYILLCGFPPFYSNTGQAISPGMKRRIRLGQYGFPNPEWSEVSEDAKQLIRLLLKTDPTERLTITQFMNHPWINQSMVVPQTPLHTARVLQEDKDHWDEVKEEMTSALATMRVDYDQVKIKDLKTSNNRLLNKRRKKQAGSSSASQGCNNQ

Consider `C=CCn1nc(C(N)=O)c2c1-c1cn[nH]c1CC2` [Example 26], for which the values for the IC50 on MK-3 (setting [1]) and at MAPKAPK2 (MK-2) (setting [2]) were 49.3 µM and 95.1 µM, respectively.
As to `O=C(O)c1c2c(nn1CCCNCCc1ccc(-c3ccc(C(F)(F)F)cc3)cc1)-c1ccncc1CC2` [Example 26], the figures for the IC50 on MK-3 and at MAPKAPK2 (MK-2) (read-out: MK-2 Avg. IC50) were 9.04 µM and 0.147 µM, respectively.
Regarding `NCCCn1nc2c(c1C(=O)O)CCc1cc(O)c(N)cc1-2` [Example 27], the IC50 at MK-3 (setting [3]) is above 200 µM; on MAPKAPK2 (MK-2) (setting [4]), 26.8 µM.
In the case of `O=C(O)c1c2c(nn1CCCO)-c1cn[nH]c1CC2` [Example 27], the IC50 was at least 200 µM at MK-3 (setting [1]) and 103 µM on MAPKAPK2 (MK-2) (setting [2]).
Regarding `O=C1NCCn2nc3c(c21)CCc1cnc(-c2cccc(O)c2)cc1-3` [Example 27], the IC50 on MK-3 was 2.51 µM; at MAPKAPK2 (MK-2) (read-out: MK-2 Avg. IC50), 0.148 µM.
For `NCCCn1nc2c(c1C(=O)NO)CCc1cnc(-c3cnc4ccccc4c3)cc1-2` [Example 28], in that order: 4.67 µM and 0.162 µM.
Take `O=C(O)c1[nH]nc2c1CCc1cc(O)c(O)cc1-2` [Example 28]: the IC50 is above 200 µM at MK-3 (setting [3]) and 28.3 µM at MAPKAPK2 (MK-2) (setting [4]).
As for `NC(=O)c1nn(-c2ccccc2)c2c1CCc1[nH]ncc1-2` [Example 29], the IC50 at MK-3 (setting [1]) is at least 200 µM; on MAPKAPK2 (MK-2) (setting [2]), 112 µM.
Consider `O=C1NCCn2nc3c(c21)CCc1cnc(/C=C/c2ccc(O)cc2)cc1-3` [Example 29], for which the figures for the IC50 on MK-3 and at MAPKAPK2 (MK-2) (read-out: MK-2 Avg. IC50) were 27.5 µM and 0.164 µM, respectively.
Consider `NCCCn1nc2c(c1C(=O)O)CCc1cc(O)c(-c3ccccc3Cl)cc1-2` [Example 30], for which the figures for the IC50 at MK-3 (setting [3]) and on MAPKAPK2 (MK-2) (setting [4]) were 60.7 µM and 29.8 µM, respectively.
Consider `O=C(O)c1[nH]nc2c1CCc1c-2cnn1CCO` [Example 30], for which the IC50 was at least 200 µM at MK-3 (setting [1]) and 114 µM at MAPKAPK2 (MK-2) (setting [2]).
On to `O=C1NCCCn2nc3c(c21)CCc1cnc(-c2cnc4ccccc4c2)cc1-3` [Example 30], for which the IC50 at MK-3 was found to be 11.9 µM; on MAPKAPK2 (MK-2) (read-out: MK-2 Avg. IC50) it was 0.171 µM.
In the case of `C=CCSc1n[nH]c2c1-c1nn(CCCN)c(C(=O)OCC)c1CC2` [Example 31], the IC50 is at least 200 µM on MK-3 (setting [1]) and 114 µM on MAPKAPK2 (MK-2) (setting [2]).
For the compound `C=CCn1nc2c(c1C(=O)O)CCc1cc(O)ccc1-2` [Example 31], the IC50 on MK-3 (setting [3]) is above 200 µM; at MAPKAPK2 (MK-2) (setting [4]), 35.6 µM.
Regarding `O=C1NCCCn2nc3c(c21)CCc1cnc(-c2ccc(O)cc2)cc1-3` [Example 31], the IC50 on MK-3 came to 2.56 µM; at MAPKAPK2 (MK-2) (read-out: MK-2 Avg. IC50) it was 0.183 µM.
For `COc1cc2c(cc1-c1ccc([N+](=O)[O-])cc1)-c1nn(CCCNC(=O)OC(C)(C)C)c(C(=O)O)c1CC2` [Example 32], the IC50 was 115 µM on MK-3 (setting [3]) and 37.4 µM at MAPKAPK2 (MK-2) (setting [4]).
Regarding `N#CCCCn1nc2c(c1C(=O)O)CCc1[nH]ncc1-2` [Example 32], the half-maximal inhibitory concentration (IC50) on MK-3 (setting [1]) was at least 200 µM; on MAPKAPK2 (MK-2) (setting [2]), 116 µM.
Regarding `O=C(O)c1c2c(nn1CCCNCCc1ccc(-c3ccccc3Cl)cc1)-c1ccncc1CC2` [Example 32], the IC50 on MK-3 was determined as 9.61 µM; at MAPKAPK2 (MK-2) (read-out: MK-2 Avg. IC50) it was 0.185 µM.
In the case of `CC(C)(C)c1ccc(-c2ccc(CCNCCCn3nc4c(c3C(=O)O)CCc3cnccc3-4)cc2)cc1` [Example 33], the IC50 at MK-3 was 7.22 µM; at MAPKAPK2 (MK-2) (read-out: MK-2 Avg. IC50), 0.201 µM.
On to `CCOC(=O)c1c2c(nn1CCCN)-c1cn[nH]c1CC2` [Example 33], for which the IC50 is 186 µM at MK-3 (setting [1]) and 116 µM on MAPKAPK2 (MK-2) (setting [2]).
`NC(=O)c1[nH]nc2c1CCc1cc(O)ccc1-2` [Example 33]: the figures for the IC50 at MK-3 (setting [3]) and on MAPKAPK2 (MK-2) (setting [4]) were 107 µM and 39.2 µM, respectively.
With `NCCCn1nc2c(c1C(=O)O)CCc1cnc(/C=C/c3ccccc3)cc1-2` [Example 33], the IC50 at MK-3 (setting [5]) came to 0.528 µM; on MAPKAPK2 (MK-2) (setting [6]), 0.0329 µM.
In the case of `Cn1nc2c(c1C(=O)O)CCc1cc(O)ccc1-2` [Example 34], the IC50 on MK-3 (setting [3]) was above 200 µM; on MAPKAPK2 (MK-2) (setting [4]), 44.4 µM.
In the case of `NC(=O)c1nn(Cc2ccccc2)c2c1CCc1[nH]ncc1-2` [Example 34], the IC50 is at least 200 µM at MK-3 (setting [1]) and 120 µM on MAPKAPK2 (MK-2) (setting [2]).
Consider `O=C(O)c1c2c(nn1CCCNCCc1ccc(Br)cc1)-c1cc(/C=C/c3ccccc3)ncc1CC2` [Example 34], for which the IC50 on MK-3 (setting [5]) was 2.02 µM; on MAPKAPK2 (MK-2) (setting [6]), 0.28 µM.
